Tests used:
[1] = tested on: brain-derived Env versus spleen-derived Env; details: cited from earlier work
From the text: We and others have investigated whether viruses or Env with these particular phenotypes are present among primary isolates in the brain/CNS of HIV-1-infected individuals. In this sense, Peters et al. have reported that the macrophage tropism of brain-derived Env seems to correlate with reduced sensitivity to inhibition by an anti-CD4 mAb but not by CCR5 antagonists or gp41-targeting antibodies or fusion inhibitor peptides. […] We hypothesized that the brain gp120 would contain the determinants for low CD4 dependence and higher avidity for CD4, while gp41 could likely play a role in the increased fusogenicity and reduced sensitivity to fusion inhibitors. In the present study, we have used chimeric and ...

[2] = tested on: pseudotypes containing wild-type, chimeric and mutant Env; experiment: Inhibition of pseudotype infection by entry/fusion inhibitors, Env panel; format: cell-based, HIV-1; details: all pseudotypes; data not shown
Experimental: To produce Env-pseudotyped, luciferase-reporter viruses, 293T cells were co-transfected using calcium phosphate precipitation (ProFection Mammalian Transfection System, Promega, Madison, WI) with each Env expression vector and with the Env-deficient, pNL4-3-luc^+env^- provirus, developed by N. Landau by introducing a frameshift mutation in the env gene of pNL4-3-luc^+ [87]. Culture supernatants containing the pseudotyped particles were collected 48–72 hours after transfection, clarified by centrifugation, aliquoted and stored at -80°C until use. Pseudotype particles lacking envelope glycoproteins, which are generated by co-transfecting the luciferase HIV-1 pro-viral backbone with an empty expression vector, are used as negative control for all pseudotype infections. Pseudotype stocks were quantitated using a p24^gag antigen capture ELISA (SAIC-National Cancer Institute) and normalized amounts of stocks were used to infect target cells for 5–6 hours at 37°C. At 2–3 days post-infection, the cells were washed with PBS and lysed, and the amount of entry mediated by each Env was measured by detecting luciferase activity (Luciferase Assay System, Promega) in a microplate luminometer (GloMax, Promega), following manufacturer's instructions. Results are obtained as relative light units (RLU) per second. […]
Inhibition curves obtained by plotting the relative infection (expressed as a percent of untreated) versus the concentration of the inhibitor were analyzed by non-linear regression with a sigmoidal dose-response model (variable slopes) using GraphPad Prism software, version 4.02 (GraphPad Software, San Diego, CA); this analysis uses a four parameter logistic equation, Y = Bottom + (Top-Bottom)/( 1+10^((log10IC50−X)⋅Slope) ) where Y is the response, Bottom is 0 and Top is 100, X is the logarithm of the concentration, and Slope is the slope of the curve. […] Fusogenicity data were analyzed by non-linear regression with a one-phase exponential model (using GraphPad Prism) that uses the equation Y=Ymax(1-e^(-kX)), where Ymax is the maximum response and k is the observed rate. […]

[3] = biological target: T1, N40, biotinylated HR1-derived peptide (HIV-1, biotin on the amino terminus); experiment: SPR; Biacore 3000; biotinylated N40 held on a streptavidin SA chip, N40scr surface as reference; T-1249 and T-1249-BR at 81–650 nM passed over at 25 µl/min, 25°C; 25 mM Tris-HCl, 150 mM NaCl, pH 7.4, 8% DMSO; details: both partners purified
T1 construct: peptide derived from the heptad repeat 1 (HR1) region of HIV-1 gp41; Held on a streptavidin SA chip by its biotin; also called HR1-based peptide; source: synthetic peptide, custom synthesized
T1 peptide: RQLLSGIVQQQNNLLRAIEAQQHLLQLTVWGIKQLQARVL

Molecule	binding result [3]	also measured
Cc1ccc(-c2ccc3c(c2)C=C(C(=O)Nc2ccc(C[N+](C)(C)C4CCOCC4)cc2)CCC3)cc1.[Cl-] [TAK-779]		sensitivity of brain-derived Env to CCR5 inhibitor [1]: absence of differences in sensitivity
YTNLIYNLIEKSQNQQEMNEQELLKLDTWASLWNWF [T-20-BR, T-20-derived peptide with amino acid changes present in HR2 region of brain-derived env clones]		inhibition of pseudotype infection [2]: very similar inhibition
WQEWEQKITALLEQAQIQQEKNEYELQKLDKWASLWEWF (also called parental T-1249; HR2-derived peptide; source: synthetic peptide, custom synthesized (BioSynthesis, Inc.)) [T-1249]	binds	
WQEWEQKITALLEQAQIQQEMNEQELQKLDTWASLWEWF (T-1249 with three amino acid changes (printed in bold) that are present in the HR2 region of the H0002GH brain-derived env clones; also called modified T-1249-BR; HR2-derived peptide; source: synthetic peptide, custom synthesized (BioSynthesis, Inc.)) [T-1249-BR]	binds	
